Source: patent publication US20240174690A1, “ANNULATED 2-AMINO-3-CYANO THIOPHENES AND DERIVATIVES FOR THE TREATMENT OF CANCER” (BOEHRINGER INGELHEIM INTERNATIONAL GMBH, priority 2021, published 2024)

Columns and labels:
SK-CO-1 cells = assay: SK-CO-1 CTG proliferation assay (120 h) (CRC, G12V); type: cell-based; settings: SK-CO-1 cells (CRC, G12V), CTG 120 h
Outline: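 SK-CO-1 colorectal cells (KRAS G12V), 500 per well in EMEM + 10% FCS, dosed with compound the day after seeding and grown 120 h at 37 °C. Viability by CellTiter-Glo luminescence as percent of DMSO control; IC50 from four-parameter non-linear regression.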

[1] = system: KRAS G12C-dependent Ba/F3 cells; assay: Ba/F3 proliferation assay, KRAS G12C; type: cell-based; settings: AlamarBlue
Outline: (§1)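 Ba/F3 cells were retrovirally transduced with KRAS G12 mutant vectors, puromycin-selected (1 μg/mL) and grown without IL-3 to make them KRAS-dependent. Compounds were tested in technical duplicates, viability was read by AlamarBlue fluorescence, and values came from curve fitting.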

[2] = Plasma protein binding assay (PPB), equilibrium dialysis, 10% FCS in PBS; type: in vitro ADME; settings: for fraction unbound: bovine, read-out: PPB 10% FCS (% fu)
Outline: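 Equilibrium dialysis (5-10 kg/mol cut-off membrane) of 1-10 μmol/L test compound in 10% FCS/PBS against PBS with or without dextran, 3-5 h at 37° C. Compound in each chamber quantified by LC-MS after protein precipitation; fu calculated from Cserum and Cbuffer.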

[3] = system: KRAS G12D-dependent Ba/F3 cells; assay: Ba/F3 proliferation assay, KRAS G12D; type: cell-based; settings: AlamarBlue
Outline: as §1

[4] = Metabolic (microsomal) stability assay, human liver microsomes (HLM); type: in vitro ADME; settings: predicted clearance as percent of liver blood flow, 1 μM
Outline: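 LC-MS/MS tracked parent disappearance at 0, 5, 15, 30 and 60 min in NADPH-initiated incubations with 1 mg/mL human microsomal protein and 1 μM compound at 37°C, pH 7.5. First-order fits gave intrinsic clearance, which was scaled up and reported as % QH. NADPH-free controls were also run.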

IC50 (SK-CO-1 cells; Homo sapiens)	IC50 ([1]; Mus musculus, BaF3, 72 h)	fraction unbound [2]	IC50 ([3]; Mus musculus, BaF3, 72 h)	HLM QH [4]	SMILES	IC50 (SK-CO-1 cells)	IC50 ([1]; 72 h)	PPB 10% FCS (% fu) ([2]; fraction unbound)	IC50 ([3]; 72 h)
0.287 µM	0.24 µM	0.54	0.066 µM	<24%	C[C@H](Oc1cc(C2=CCNCC2)nc(-c2noc3c2CCC[C@@]32CCCc3sc(N)c(C#N)c32)n1)[C@@H]1CCCN1C [II-164]	–	–	–	–
0.436 µM	0.134 µM	0.6	0.014 µM	28%	C[C@H](Oc1cc(-n2cc3c(n2)CCN(C)C3)nc(-c2noc3c2CCC[C@@]32CCCc3sc(N)c(C#N)c32)n1)[C@@H]1CCCN1C [II-141]	–	–	–	–
0.357 µM	0.04 µM	0.24	0.077 µM	56%	CO[C@@H]1C[C@@H]([C@H](C)Oc2cc(-c3cnn(C)n3)nc(-c3onc4c3CCC[C@@]43CCCc4sc(N)c(C#N)c43)n2)N(C)C1 [I-17]	–	–	–	–
0.13 µM	0.002 µM	0.11	0.004 µM	75%	C[C@H](Oc1cc(-c2ccn(C)n2)nc(-c2noc3c2CCC[C@@]32CCCc3sc(N)c(C#N)c32)n1)[C@@H]1C[C@H](F)CN1C [II-144]	–	–	–	–
0.004 µM	0.002 µM	0.04	0.006 µM	69%	CO[C@H]1CCN(C)[C@@H]1[C@H](C)Oc1cc(-n2ccc(C(=O)N[C@@H]3CCOC3)n2)nc(-c2noc3c2CCC[C@@]32CCCc3sc(N)c(C#N)c32)n1 [II-197]	–	–	–	–
0.089 µM	0.033 µM	0.04	0.248 µM	<24%	C[C@H](Oc1cc(-c2cccc(C(N)=O)c2)nc(-c2noc3c2CCC[C@@]32CCCc3sc(N)c(C#N)c32)n1)[C@@H]1CCCN1C [II-133]	–	–	–	–
0.007 µM	0.011 µM	0.02	0.043 µM	<24%	C[C@H](Oc1cc(-n2ccc(-c3cn(CC4(C)COC4)nn3)n2)nc(-c2noc3c2CCC[C@@]32CCCc3sc(N)c(C#N)c32)n1)[C@@H]1CCCN1C [II-213]	–	–	–	–
0.149 µM	0.031 µM	0.46	0.085 µM	<24%	CC(=O)N1CCN(c2cc(O[C@@H](C)[C@@H]3CCCN3C)nc(-c3noc4c3CCC[C@@]43CCCc4sc(N)c(C#N)c43)n2)CC12CC2 [II-178]	–	–	–	–
0.014 µM	0.011 µM	0.03	0.062 µM	<24%	C[C@H](Oc1cc(-n2cc3ccn(C[C@H]4CCOC4)c(=O)c3n2)nc(-c2noc3c2CCC[C@@]32CCCc3sc(N)c(C#N)c32)n1)[C@@H]1CCCN1C [II-204]	–	–	–	–
0.005 µM	0.001 µM	0.03	0.008 µM	65%	COCCNC(=O)c1ccn(-c2cc(O[C@@H](C)[C@@H]3[C@@H](OC)CCN3C)nc(-c3noc4c3CCC[C@@]43CCCc4sc(N)c(C#N)c43)n2)n1 [II-200]	–	–	–	–
0.71 µM	0.224 µM	0.46	0.004 µM	36%	C[C@H](Oc1cc(N2CCNC[C@]23CCOC3)nc(-c2onc3c2CCC[C@@]32CCCc3sc(N)c(C#N)c32)n1)[C@@H]1CCCN1C [I-12]	–	–	–	–
0.09 µM	0.016 µM	0.01	0.145 µM	<24%	C[C@H](Oc1cc(-n2nccc2-c2ccncc2)nc(-c2noc3c2CCC[C@@]32CCCc3sc(N)c(C#N)c32)n1)[C@@H]1CCCN1C [II-131]	–	–	–	–
0.779 µM	0.099 µM	0.25	0.014 µM	52%	C[C@H](Oc1cc(N2CCN(C)C3(COC3)C2)nc(-c2noc3c2CCC[C@@]32CCCc3sc(N)c(C#N)c32)n1)[C@@H]1C[C@@H](F)CN1C [II-148]	–	–	–	–
0.047 µM	0.01 µM	0.06	0.083 µM	<24%	C[C@H](Oc1cc(-c2ccn(Cc3ncco3)n2)nc(-c2noc3c2CCC[C@@]32CCCc3sc(N)c(C#N)c32)n1)[C@@H]1CCCN1C [II-128]	–	–	–	–
0.007 µM	0.002 µM	0.04	0.012 µM	75%	CO[C@H]1CCN(C)[C@@H]1[C@H](C)Oc1cc(-n2ccc(CC(=O)NC(C)C)n2)nc(-c2noc3c2CCC[C@@]32CCCc3sc(N)c(C#N)c32)n1 [II-183]	–	–	–	–
1.34 µM	0.884 µM	0.26	0.614 µM	<24%	C[C@H](Oc1cc(N2C[C@@H]3[C@@H](N)[C@@H]3C2)nc(-c2noc3c2CCC[C@@]32CCCc3sc(N)c(C#N)c32)n1)[C@@H]1CCCN1C [II-167]	–	–	–	–

SMILES	IC50 (SK-CO-1 cells; Homo sapiens)	IC50 ([1]; Mus musculus, BaF3, 72 h)	fraction unbound [2]	IC50 ([3]; Mus musculus, BaF3, 72 h)	HLM QH [4]	IC50 (SK-CO-1 cells)	IC50 ([1]; 72 h)	PPB 10% FCS (% fu) ([2]; fraction unbound)	IC50 ([3]; 72 h)
C[C@H](Oc1cc(-n2ccc(C(=O)N[C@H]3CCOC3)n2)nc(-c2noc3c2CCC[C@@]32CCCc3sc(N)c(C#N)c32)n1)[C@@H]1CCCN1C [II-193]	–	–	–	–	31%	0.003 µM	0.002 µM	20 % fu	0.009 µM
